Results published in publication PMC7730638, “Liposomes Composed by Membrane Lipid Extracts from Macrophage Cell Line as a Delivery of the Trypanocidal N,N’-Squaramide 17 towards Trypanosoma cruzi” (Materials, 2020).
Values joined by “and” are separate entries in the source; they are usually repeats but may differ in a detail not shown here. Equal entries are not always repeated.

Assays:
Trypanosoma cruzi = system: Trypanosoma cruzi; set-up: method as in PMID 24410674; conditions: acute phase, mice, after 40 days of treatment, compared to control; cited from earlier work
[1] = system: Epimastigotes of T. cruzi; test: Ultrastructural changes in epimastigotes (SEM); type: cell-based, Trypanosoma cruzi; conditions: half of IC50 (BZ 7.91 µM, S 6.56 µM), 72 h
Method: Epimastigotes of T. cruzi were grown at a density of 5 × 10^5 cells/mL in RPMI culture medium containing the compounds tested at concentrations of 7.91 µM (BZ), 6.56 µM (S), and 7.93 µM (MLS) corresponding to the half of IC50 of each compound. After 72 h these cultures were centrifuged at 1600× g for 10 min. Parasites were washed in PBS and fixed for 1 h at room temperature with 2% formaldehyde and 2.5% glutaraldehyde in sodium cacodylate buffer (0.1 M, pH 7.2). Samples were then washed in 0.1 M cacodylate buffer and adhered to coverslips previously coated with poly-L-lysine (Sigma Aldrich, St. Louis, MO, USA). After adhesion, post-fixation was performed using a solution of 1% OsO4 containing 0.8% potassium ferrocyanide (K4Fe (CN)6). Then, parasites were dehydrated in increasing concentrations of acetone (30%, 50%, 70%, 90%, and 100%), subject to critical-point drying, metalized with gold, and observed in a scanning electron microscope (SEM)- (JEOL JSM-7000F, Tokyo, Japan). Sample images were visualized using a 15 kV beam voltage.

[2] = system: T. cruzi intracellular amastigotes; test: Trypanocidal activity on intracellular amastigotes in infected VERO cells (counting of stained cells); type: cell-based; conditions: Trypanosoma cruzi, 6.25 μM to 100 μM, 72 h
Method: (§1) VERO (ATCC CCL81) and RAW 264.7 cells (ATCC TIB71) were maintained in RPMI-1640 supplemented with 10% fetal bovine serum (FBS) (Sigma Aldrich, St. Louis, MO, USA) without phenol red at 37 °C and 5% CO2 [14]. […] Trypomastigotes were obtained from monolayers of infected VERO cells grown at 37 °C in an atmosphere with 5% CO2 in RPMI-1640, pH 7.4, supplemented with 10% FBS and 100 μg/mL gentamicin. […] Then, 2.5 × 10^5 epimastigotes/mL were resuspended in 150 μL and added to the microplates. After 48 h, resazurin was added (20 μL/well of resazurin −3 mM), incubated for further 24 h, and fluorescence was recorded as described above. Nanostructures’ effect on amastigotes was accessed in VERO cell line grown in RPMI medium containing 10% FBS and seeded at a density of 1 × 10^4 cells/well in 24-well microplates. […] Cells were fixed and stained with Kit for Fast Staining in Haematology (Figure S2), and the number of amastigotes was determined by counting 200 cells for each experimental group distributed in random microscopic fields. The IC50 values were determined by nonlinear regression in GraphPad Prism version 7.0 (GraphPad Software, San Diego, CA, USA). Selectivity indices (SI) were calculated using the formula: SI = CC50 cytotoxicity in VERO cells/IC50 cytotoxicity in intracellular amastigotes.

[3] = Cytotoxicity in RAW 264.7 macrophages (resazurin); type: cell-based; conditions: mouse, RAW 264.7 macrophages (ATCC TIB71), 50 μM to 800 μM, read-out: RAW 264.7 Macrophage CC50
Method: (§2) VERO (ATCC CCL81) and RAW 264.7 cells (ATCC TIB71) were maintained in RPMI-1640 supplemented with 10% fetal bovine serum (FBS) (Sigma Aldrich, St. Louis, MO, USA) without phenol red at 37 °C and 5% CO2 [14]. […] Trypomastigotes were obtained from monolayers of infected VERO cells grown at 37 °C in an atmosphere with 5% CO2 in RPMI-1640, pH 7.4, supplemented with 10% FBS and 100 μg/mL gentamicin.
(§3) The reference drug benznidazole (BZ) was dissolved in dimethyl sulfoxide (DMSO) at 5% (w/v) at 0.002 M (stock) and the final concentration of DMSO in the experiments never exceeded 0.25% (v/v) to not affect the cell viability. The MLV, MLS, and free S were dispersed or dissolved in deionized water. The final concentration of these treatments in the experiments never exceeded 0.01% (v/v). […] Thereafter, 20 μL of resazurin—(0.39 mM, Sigma Aldrich, St. Louis, MO, USA) was added to each well, followed by incubation for 2 h, and then fluorescence was read on a microplate reader SpectraMax M5 (570 nmex/595 nmem) (Molecular Devices, Sunnyvale, CA, USA). Percentage of cell viability was calculated using the equation below, where A is the arbitrary fluorescence units (AFU) of the treatments, B is AFU culture medium with resazurin and C is AFU of the control group. […]

[4] = Cytotoxicity in VERO cells (resazurin); type: cell-based; conditions: African green monkey, VERO cells (ATCC CCL81), 50 μM to 800 μM, read-out: VERO Cell CC50
Method: as §2, §3

[5] = cited from earlier work
[6] = system: T. cruzi (strain CL-Brener) epimastigote; test: Trypanocidal activity on epimastigotes (resazurin); type: cell-based; conditions: Trypanosoma cruzi; 6.25 μM to 100 μM, 72 h
Method: as §1

[7] = Entrapment efficiency (filtration, absorbance at 320 nm); type: physicochemical; conditions: for Entrapment efficiency: mean of triplicate, 320 nm
Method: The MLS nanostructures were evaluated in terms of drug entrapment efficiency (EE), established as a ratio between the encapsulation (ED) over the initial quantity of the drug (ID), according to the Equation (1) below: (1) EE %=ED mg/ID mg×100 For the determination of EE, the S-loaded nanostructures were filtrated in 100 kDa Amicon filters (Amicon® Ultra 0.5 mL centrifuge filters - Millipore, Darmstadt, Germany) at 300× g for 10 min, 4 °C [17]. Unentrapped drug (filtered content) was collected and the absorbance was measured at 320 nm using a biophotometer (Eppendorf BioPhotometer® 6131, Hamburg, Germany) (Figure S1). […] Experiments were performed in triplicates.

Row | Entrapment efficiency [7] | Entrapment efficiency ([7]; listed as N, N’-Squaramide 17) | Entrapment efficiency, single replicates ([7]; replicates 1-3, 320 nm, listed as N, N’-Squaramide 17) | SMILES | Reduction of parasitemia (Trypanosoma cruzi) | Morphological alterations in epimastigotes [1] | IC50 [2] | CC50 at 72 h [3] | CC50 at 72 h [4] | Partition coefficient log P [5] | IC50 [6]
1 | 73.35% ± 2.05% | 73.35% | 75.71% and 72.07% and 72.35% | CCCCNc1c(N(C)CCCN(C)C)c(=O)c1=O [S, N, N’-Squaramide 17] | 67% | a protuberance on the cell | 51.2 ± 4.91 µM | 1654 ± 5.2 µM | 736.2 ± 1.23 µM | 0.59 | 13.1 ± 5.12 µM
2 |  |  |  | O=C(Cn1ccnc1[N+](=O)[O-])NCc1ccccc1 [BZ, benznidazole, reference compound] |  | prominences in the cell body and distortion in the flagellum | 4.76 ± 4.45 µM | 554.8 ± 4.9 µM | 284.4 ± 1.25 µM |  | 15.8 ± 4.63 µM
